Test results published in paper PMC4976923, “Potent Allosteric Dengue Virus NS5 Polymerase Inhibitors: Mechanism of Action and Resistance Profiling” (PLoS Pathogens, 2016).

Assays:
DENV4 FL NS5 = target: T1, DENV4 FL NS5 (Dengue virus type 4, UniProt P09866); assay: biochemical; conditions: Enzyme + compound 20 min, then ssRNA and nucleotides, 2 hr; averaged from ≥3 experiments; read-out: DENV FL NS5 de novo initiation FAPA, IC50, DENV4
T1 construct: 100 nM DENV FL NS5 protein was added; made in house
Description: DENV1-4 FL NS5 dnI assays were performed as described previously. Briefly, compounds from 0–20 or -100 μM concentrations are two-fold serially diluted into 384-well black opaque plates (Corning Costar), after which 100 nM DENV FL NS5 protein was added and the plates incubated at RT for 20 min. RNA and ATTO-CTP, ATP, GTP and UTP were then added and the plates incubated for another 120 min. […] For order-of-addition experiments, DENV4 FL NS5 was incubated for one hour at RT with RNA, ATP, and GTP or RNA, ATP, GTP and ATTO-CTP, followed by exposure to serially diluted compounds for 20 min at RT. The missing components (ATTO-CTP and UTP or UTP alone) were added and the reactions continued for 120 min after which STOP buffer was added as before. All datapoints were performed in duplicate wells. Each compound was tested at least twice.
(§1) 2 Co mpound testing with DENV dn I FAPA assays. Final dn I assa y reaction mixtures
(§2) 3 contained 100 nM DENV 5 ´UTR-L-3´UTR IVT RNA, 20 µ M ATP, 20 µM GTP, 20 µM
(§3) 4 UTP, 5 µM ATTO -CTP, and 100 nM of DENV FL NS5 protein in 15 µl in assa y buffer
(§4) 5 comprising 50 mM Tris/ HCl, pH 7.5, 10 mM KCl, 1 mM MgCl2, 0.3 mM MnCl2 (DENV2
(§5) 6 and 4) or 1 mM MnCl 2 (DENV1 and 3), 0.001% Triton- X-100 and 10 µ M cystein e [ 1] . To
(§6) 7 perform dose-respons e inhibition measurements, compounds from 0- 20 or - 100 µM
(§7) 8 concentr ations are two -fold seriall y diluted into 384-well black opaqu e plat es (Corning
(§8) 9 Costar), after which 100 nM DENV FL NS5 protein was added into resp ect ive wells. The
(§9) 10 plates wer e sealed, b riefl y shak en and centrif uged at 1500 rpm for 30 sec and incubated at RT
(§10) 11 for 15 min. Thereafter,RNA and ATTO -CTP, ATP, GTP and UTP were added to the wells to
(§11) 12 start the reactions. The pl ates wer e re-seal ed, shaken and centrifuged as before, followed b y
13 incubation RT for 120 min.
(§12) 15 intestinal phosphatase (CIP), re- incubation at RT for 60 min and read on a Tecan Safire II
16 microplate reader. For o r der-of-addition experiments, DENV4 FL NS5 was incubated for one
17 hour at RT with RNA, ATP, and GTP or RNA, ATP, GTP and ATTO-CTP, followed by
18 exposure to seriall y dilut ed compounds for 20 mi n at RT. The missing components (ATTO-
19 CTP and UTP or UTP alone) were added and the reactions continued for 120 min after which
20 STOP buffer was added as before. All datapoints were performed in duplicate wells. Each
21 compound was tested at l east twice. […]

DENV4, strain MY01-22713 = assay: DENV4 infected A549 cells, high content imaging (HCI); assay type: cell-based; conditions: 48 hr
Description: as §1, §2, §3, §4, §5, §6, §7, §8, §9, §10, §11
(§13) 13 incubation RT for 120 min. […]
as §12
(§14) 16 microplate reader. […]
(§15) 8 DENV envelope protein ) and DRAQ5 (for nucl ear DNA) . Quantifications of DENV
(§16) 9 envelope protein were determined using the Opera high content imaging s ystem and anal ysis […]
(§17) 17 µM concentrations. At 48 hr of post-incubation, r enilla luciferas e activities were measured […]

DENV3 strain MY05-34640 = assay: DENV3 infected A549 cells, high content imaging (HCI); assay type: cell-based; conditions: 48 hr
Description: as §1, §2, §3, §4, §5, §6, §7, §8, §9, §10, §11, §13, §12, §14, §15, §16, §17

[1] = test system: clinical DENV2 isolate MY97-10340; assay: DENV2 infected A549 cells, high content imaging (HCI); assay type: cell-based; conditions: Dengue virus, 48 hr
Description: as §1, §2, §3, §4, §5, §6, §7, §8, §9, §10, §11, §13, §12, §14, §15, §16, §17

DENV1, strain MY97-10245 = assay: DENV1 infected A549 cells, high content imaging (HCI); assay type: cell-based; conditions: 48 hr
Description: as §1, §2, §3, §4, §5, §6, §7, §8, §9, §10, §11, §13, §12, §14, §15, §16, §17

DENV3 FL NS5 = target: T2, DENV3 FL NS5 (Dengue virus type 3, UniProt Q6YMS4); conditions: read-out: DENV FL NS5 de novo initiation FAPA, IC50, DENV3; cited from earlier work
T2 construct: 100 nM DENV FL NS5 protein was added; made in house

DENV1 FL NS5 = target: T3, DENV1 FL NS5 (Dengue virus type 1, UniProt P17763); conditions: read-out: DENV FL NS5 de novo initiation FAPA, IC50, DENV1; cited from earlier work
T3 construct: 100 nM DENV FL NS5 protein was added; made in house
T3 sequence (P17763 2494-3392): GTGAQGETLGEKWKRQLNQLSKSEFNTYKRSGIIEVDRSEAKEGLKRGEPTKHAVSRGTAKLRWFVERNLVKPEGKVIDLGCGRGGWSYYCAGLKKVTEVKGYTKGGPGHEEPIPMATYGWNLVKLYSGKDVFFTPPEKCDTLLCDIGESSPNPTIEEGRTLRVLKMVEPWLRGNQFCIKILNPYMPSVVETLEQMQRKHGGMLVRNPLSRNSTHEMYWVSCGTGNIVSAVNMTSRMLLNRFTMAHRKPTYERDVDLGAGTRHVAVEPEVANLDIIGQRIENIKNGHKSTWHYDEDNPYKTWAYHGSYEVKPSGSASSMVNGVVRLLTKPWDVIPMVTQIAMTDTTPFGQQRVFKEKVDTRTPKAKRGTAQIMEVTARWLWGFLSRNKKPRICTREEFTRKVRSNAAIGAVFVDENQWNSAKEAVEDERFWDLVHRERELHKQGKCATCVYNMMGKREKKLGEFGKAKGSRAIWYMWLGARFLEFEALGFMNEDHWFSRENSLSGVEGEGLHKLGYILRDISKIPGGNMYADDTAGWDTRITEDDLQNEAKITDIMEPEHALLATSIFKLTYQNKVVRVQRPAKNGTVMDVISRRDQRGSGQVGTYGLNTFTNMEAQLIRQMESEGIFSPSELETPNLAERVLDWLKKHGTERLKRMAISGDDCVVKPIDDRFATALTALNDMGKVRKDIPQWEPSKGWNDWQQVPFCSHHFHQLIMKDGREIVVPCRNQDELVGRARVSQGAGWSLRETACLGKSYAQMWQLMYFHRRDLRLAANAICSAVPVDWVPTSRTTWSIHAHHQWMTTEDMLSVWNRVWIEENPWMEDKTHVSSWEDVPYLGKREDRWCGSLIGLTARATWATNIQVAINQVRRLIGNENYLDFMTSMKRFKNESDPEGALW

T1 sequence (P09866 2488-3387): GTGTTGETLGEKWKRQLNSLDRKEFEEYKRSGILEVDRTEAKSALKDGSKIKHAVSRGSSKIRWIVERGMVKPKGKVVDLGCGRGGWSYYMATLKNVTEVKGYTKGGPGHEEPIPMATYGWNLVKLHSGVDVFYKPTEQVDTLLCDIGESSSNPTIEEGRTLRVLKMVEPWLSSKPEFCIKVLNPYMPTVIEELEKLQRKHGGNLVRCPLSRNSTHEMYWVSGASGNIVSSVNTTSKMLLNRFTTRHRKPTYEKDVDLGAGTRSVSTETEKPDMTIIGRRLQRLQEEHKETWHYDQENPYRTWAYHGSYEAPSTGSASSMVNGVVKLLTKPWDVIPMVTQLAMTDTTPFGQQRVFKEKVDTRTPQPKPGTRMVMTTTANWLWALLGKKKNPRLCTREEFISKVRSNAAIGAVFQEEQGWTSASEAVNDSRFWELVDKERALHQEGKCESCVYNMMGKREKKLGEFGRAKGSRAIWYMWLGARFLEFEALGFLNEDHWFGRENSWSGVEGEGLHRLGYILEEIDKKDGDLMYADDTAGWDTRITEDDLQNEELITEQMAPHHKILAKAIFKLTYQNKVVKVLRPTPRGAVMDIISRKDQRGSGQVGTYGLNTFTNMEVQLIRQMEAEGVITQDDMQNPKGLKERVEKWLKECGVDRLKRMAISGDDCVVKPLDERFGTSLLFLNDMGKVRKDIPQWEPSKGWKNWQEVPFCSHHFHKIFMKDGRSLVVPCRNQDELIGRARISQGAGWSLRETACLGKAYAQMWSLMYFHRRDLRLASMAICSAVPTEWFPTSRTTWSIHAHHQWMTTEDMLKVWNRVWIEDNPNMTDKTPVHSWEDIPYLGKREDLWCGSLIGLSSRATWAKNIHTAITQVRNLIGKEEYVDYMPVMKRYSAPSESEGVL
T2 sequence (Q6YMS4 2491-3390): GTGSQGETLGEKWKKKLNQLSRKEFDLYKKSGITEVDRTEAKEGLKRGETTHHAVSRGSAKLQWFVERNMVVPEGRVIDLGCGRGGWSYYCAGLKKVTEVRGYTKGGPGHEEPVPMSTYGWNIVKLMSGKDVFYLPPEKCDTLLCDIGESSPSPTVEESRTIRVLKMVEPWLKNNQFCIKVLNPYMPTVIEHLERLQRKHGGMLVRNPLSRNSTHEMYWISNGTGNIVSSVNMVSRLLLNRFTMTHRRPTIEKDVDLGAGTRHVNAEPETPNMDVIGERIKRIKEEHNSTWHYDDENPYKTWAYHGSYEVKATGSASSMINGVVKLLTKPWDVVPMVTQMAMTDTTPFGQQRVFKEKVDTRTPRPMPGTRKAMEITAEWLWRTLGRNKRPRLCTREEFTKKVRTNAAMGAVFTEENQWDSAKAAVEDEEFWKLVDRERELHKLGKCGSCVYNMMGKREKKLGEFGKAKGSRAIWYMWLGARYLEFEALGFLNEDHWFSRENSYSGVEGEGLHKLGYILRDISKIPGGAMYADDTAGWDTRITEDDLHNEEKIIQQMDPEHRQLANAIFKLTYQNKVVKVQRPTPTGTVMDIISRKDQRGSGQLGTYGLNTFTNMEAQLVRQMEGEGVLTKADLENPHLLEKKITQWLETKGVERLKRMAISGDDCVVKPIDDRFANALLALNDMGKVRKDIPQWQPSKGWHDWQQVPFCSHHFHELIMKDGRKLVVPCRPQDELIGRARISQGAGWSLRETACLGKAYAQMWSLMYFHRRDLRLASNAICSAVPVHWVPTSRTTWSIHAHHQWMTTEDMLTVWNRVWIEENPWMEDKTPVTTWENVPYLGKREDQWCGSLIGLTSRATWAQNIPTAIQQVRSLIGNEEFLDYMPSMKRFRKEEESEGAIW

SMILES	IC50 (DENV4 FL NS5)	EC50 (DENV4, strain MY01-22713)	EC50 (DENV3 strain MY05-34640)	EC50 [1]	EC50 (DENV1, strain MY97-10245)	IC50 (DENV3 FL NS5)	IC50 (DENV1 FL NS5)
COc1cccc(S(=O)(=O)NC(=O)c2cc(-c3ccc(C#CCO)s3)c(OC)cc2C)c1 [Compound 26i]	0.109 ± 0.061 µM	20.4 µM	16.8 µM	26.9 µM	15.2 µM		
COc1cccc(S(=O)(=O)NC(=O)c2cc(-c3ccc(C#CCO)s3)c(OC)cc2OC)c1 [Compound 27]						0.048 µM	0.068 µM
